# Assay results from ChEMBL document CHEMBL4371067, “Discovery of N-substituted 7-azaindoles as Pan-PIM kinases inhibitors - Lead optimization - Part III” (Bioorg Med Chem Lett, 2019).
# The source made the active and inactive calls. The calls are words filed in the database; no cut-off is given here.
# Experiments:
# [1] = target: Serine/threonine-protein kinase pim-1 (Homo sapiens, UniProt P11309); assay: Inhibition of PIM1 (unknown origin) assessed as reduction in BAD phosphorylation at Ser-112 residue by TR-FRET assay
# [2] = target: Serine/threonine-protein kinase pim-2 (Homo sapiens, UniProt Q9P1W9); assay: Inhibition of PIM2 (unknown origin) assessed as reduction in BAD phosphorylation at Ser-112 residue by TR-FRET assay
# [3] = target: Serine/threonine-protein kinase PIM (Homo sapiens, UniProt P11309+Q9P1W9+Q86V86); assay: Inhibition of PIM in human KG1 cells assessed as reduction in pS6 level; assay type: cell-based
# KG-1 = assay: Antiproliferative activity against human KG1 cells; assay type: functional, cell-based
# [4] = Permeability in human Caco2/TC7 cells at 5 uM; assay type: ADME, cell-based; conditions: for Papp at 5 µM: Caco-2, read-out: permeability; for permeability: caco2/tc7, 5 µM, 5 µM
# hERG (KCNH2) [5] = target: T1, hERG (KCNH2) (Homo sapiens, UniProt Q12809); assay: Inhibition of human ERG at 10 uM relative to control
# hERG (KCNH2) [6] = target: T1, hERG (KCNH2); assay: Inhibition of human ERG at 1 uM relative to control
# [7] = Clearance in human liver microsomes assessed as drug extraction at 5 uM; assay type: ADME, Microsome; conditions: for hepatic extraction ratio at 5 µM: liver microsomes, read-out: CLH; for CLH: microsomes, 5 µM
# [8] = target: Voltage-gated inwardly rectifying potassium channel KCNH2 (Homo sapiens, UniProt Q12809); assay: Inhibition of human ERG
# [9] = Clearance in mouse liver microsomes assessed as drug extraction at 5 uM; assay type: ADME, Microsome; conditions: for hepatic extraction ratio at 5 µM: liver microsomes, read-out: CLH; for CLH: microsomes, 5 µM
# [10] = Thermodynamic solubility in pH 7.4 solution; assay type: physicochemical; conditions: buffer; for solubility thermodynamic: read-out: Therm_solubility
# [11] = Efflux ratio of permeability in human Caco2/TC7 cells at 5 uM; assay type: ADME, cell-based; conditions: Caco-2
# Mus musculus = assay: In vivo inhibition of PIM in mouse xenografted with human KG1 cells assessed as reduction in phosphorylated BAD level at 25 mg/kg, po administered as single dose and measured up to 24 hrs post dose relative to control; assay type: functional
# [12] = AUC (0 to infinity) in rat at 3 mg/kg, iv administered as single dose; assay type: ADME, organism-based; set-up: dose 3 mg/kg, route intravenous, time infinity; conditions: in vivo
# [13] = AUC (0 to infinity) in rat at 10 mg/kg, po administered as single dose; assay type: ADME, organism-based; set-up: dose 10 mg/kg, route oral, time infinity; conditions: in vivo
# [14] = Cmax in rat at 10 mg/kg, po administered as single dose; assay type: ADME, organism-based; set-up: dose 10 mg/kg, route oral; conditions: in vivo
# [15] = Half life in rat at 3 mg/kg, iv administered as single dose; assay type: ADME, organism-based; conditions: in vivo
# [16] = Half life in rat at 10 mg/kg, po administered as single dose; assay type: ADME, organism-based; conditions: in vivo
# [17] = Oral bioavailability in rat at 10 mg/kg administered as single dose; assay type: ADME, organism-based; conditions: in vivo
# [18] = Clearance in rat at 3 mg/kg, iv administered as single dose; assay type: ADME, organism-based; conditions: in vivo
# [19] = Volume of distribution at steady state in rat at 3 mg/kg, iv administered as single dose; assay type: ADME, organism-based; conditions: in vivo, read-out: Vdss
Compound,IC50 [1] [nM],IC50 [2] [nM],EC50 [3] [nM],"EC50 (KG-1; Homo sapiens, KG-1) [nM]",Papp at 5 µM [4] [×10⁻⁶ cm/s],inhibition at 10 µM (hERG (KCNH2) [5]) [%],inhibition at 1 µM (hERG (KCNH2) [6]) [%],hepatic extraction ratio at 5 µM [7],IC50 [8] [nM],hepatic extraction ratio at 5 µM [9],Ki [1] [nM],other results
CC(C)(O)C#Cc1c(Cl)c2c(Cl)cc(C(N)=O)nc2n1[C@H]1CCCNC1,2.2,9.9,36,302,0.14,47,20,0,,,,
COCC(C)(C)C#Cc1c(Cl)c2c(Cl)cc(C(N)=O)nc2n1[C@H]1CCCNC1,1.6,4,98,219,4.8,,,0.1,1100,0.32,,
CC(C)(C#N)CC#Cc1c(Cl)c2c(Cl)cc(C(N)=O)nc2n1[C@H]1CCCNC1,5.8,29.4,90,113,6.5,,,0.03,3000,0.08,,
NC(=O)c1cc(Cl)c2c(Cl)c(C#CC3CC3)n([C@H]3CCCNC3)c2n1,0.7,9,28,207,3,97,53,0.21,,,,solubility thermodynamic [10]: 13 µM; efflux ratio at 5 µM [11]: 2.5; inhibition (Mus musculus): Active
CC(O)CC#Cc1c(Cl)c2c(Cl)cc(C(N)=O)nc2n1[C@H]1CCCNC1 (some centres not stated),1,6.1,32,48,0.24,23,13,0.06,,,0.6,solubility thermodynamic [10]: 760 µM; efflux ratio at 5 µM [11]: 53
NC(=O)c1cc(Cl)c2c(Cl)c(C#CCCO)n([C@H]3CCCNC3)c2n1,0.6,2.7,18,56,0.18,25,12,0,,,0.1,solubility thermodynamic [10]: 144 µM; efflux ratio at 5 µM [11]: 8.8
CC1(C#Cc2c(Cl)c3c(Cl)cc(C(N)=O)nc3n2[C@H]2CCCNC2)COC1,1.6,5.7,37,119,2.9,,,0.05,3000,0.19,1.2,
NC(=O)c1cc(Cl)c2c(Cl)c(C#CCN3CCCC3=O)n([C@H]3CCCNC3)c2n1,2,6.7,93,178,0.01,,,0.03,> 20000,0.26,,
CC1(CC#Cc2c(Cl)c3c(Cl)cc(C(N)=O)nc3n2[C@H]2CCCNC2)COC1,2.4,15.7,33,289,1.2,,,0.12,5000,0.35,,
CC(C)(CC#Cc1c(Cl)c2c(Cl)cc(C(N)=O)nc2n1[C@H]1CCCNC1)C(N)=O,4.7,21,133,269,0.4,,,0.01,> 10000,0.06,,
NC(=O)c1cc(Cl)c2c(Cl)c(C#CC3CCCO3)n([C@H]3CCCNC3)c2n1 (stereo in doubt; 20b),2.2,7.4,69,,,,,,,,1.3,Therm_solubility [10]: 333 µM; EC50 (KG-1; kg-1): 91 nM; permeability [4]: 33 ×10⁻⁷ cm/s; CLH [7]: 24%; CLH [9]: 37%; AUC(0-inf) [12]: 324 ng·h/mL; AUC(0-inf) [13]: 326 ng·h/mL; Cmax [14]: 54 ng/mL; half-life [15]: 2.32 h; half-life [16]: 3.63 h; bioavailability [17]: 30%; clearance [18]: 150 mL/min/kg; Vd [19]: 19.6 L/kg
CN1CC(C#Cc2c(Cl)c3c(Cl)cc(C(N)=O)nc3n2[C@H]2CCCNC2)CC1=O (some centres not stated),3.1,17.5,128,155,0.05,,,0.05,> 20000,0.22,1.2,
CC(O)C#Cc1c(Cl)c2c(Cl)cc(C(N)=O)nc2n1[C@H]1CCCNC1 (some centres not stated),1.1,9.3,13,147,0.34,20,9,0,,,0.7,solubility thermodynamic [10]: 206 µM; efflux ratio at 5 µM [11]: 37
NC(=O)c1cc(Cl)c2c(Cl)c(C#CC3CNCCO3)n([C@H]3CCCNC3)c2n1 (stereo in doubt; 29b),1.4,7.6,51,,,,,,> 20000,,0.9,EC50 (KG-1; kg-1): 197 nM; permeability [4]: 2 ×10⁻⁷ cm/s; CLH [7]: 0%; CLH [9]: 15%
NC(=O)c1cc(Cl)c2c(Cl)c(C#CC3CCCO3)n([C@H]3CCCNC3)c2n1 (stereo in doubt; 20a),4.4,21,137,,3.2,,,,,,,solubility thermodynamic [10]: 207 µM; EC50 (KG-1; kg-1): 223 nM
COC(C)(C)CC#Cc1c(Cl)c2c(Cl)cc(C(N)=O)nc2n1[C@H]1CCCNC1,2.3,10.4,61,172,4.5,,,0.12,4000,0.33,,solubility thermodynamic [10]: 1.2 µM
NC(=O)c1cc(Cl)c2c(Cl)c(C#CC3COCCO3)n([C@H]3CCCNC3)c2n1 (stereo in doubt; 22a),2.3,8.8,70,,,,,0.1,1400,,,EC50 (KG-1; kg-1): 77 nM; permeability [4]: 81 ×10⁻⁷ cm/s; CLH [9]: 30%
NC(=O)c1cc(Cl)c2c(Cl)c(C#CCO)n([C@H]3CCCNC3)c2n1,1.7,11,59,301,0.08,28,22,0,,,3,efflux ratio at 5 µM [11]: 120
NC(=O)c1cc(Cl)c2c(Cl)c(C#CC3CCOCC3)n([C@H]3CCCNC3)c2n1,1.5,10.2,53,69,3.4,,,0.07,1700,0.13,,AUC(0-inf) [12]: 440 ng·h/mL; AUC(0-inf) [13]: 979 ng·h/mL; Cmax [14]: 91 ng/mL; half-life [15]: 7.41 h; half-life [16]: 10.2 h; bioavailability [17]: 67%; clearance [18]: 102 mL/min/kg; Vd [19]: 63 L/kg
NC(=O)c1cc(Cl)c2c(Cl)c(C#CC3CNCCO3)n([C@H]3CCCNC3)c2n1 (stereo in doubt; 29a),2.8,6.1,283,365,,,,,6000,0.22,,permeability [4]: 8 ×10⁻⁷ cm/s; CLH [7]: 6%
NC(=O)c1cc(Cl)c2c(Cl)c(C#CC3COCCO3)n([C@H]3CCCNC3)c2n1 (stereo in doubt; 22b),2.3,6,95,,,86,20,,,,,EC50 (KG-1; kg-1): 203 nM; permeability [4]: 9 ×10⁻⁷ cm/s; CLH [7]: 10%; CLH [9]: 4%
